Laboratory results reported in patent publication US20210246121A1, “SOLID FORMS OF APOL1 INHIBITOR AND METHODS OF USING SAME” (Vertex Pharmaceuticals Incorporated, priority 2020, published 2021).

Assay: relative thermodynamic stability of solid forms of Compound I as a function of water activity
Assay type: physicochemical
Settings: from about 0 to 0.5 or 0.6 water activity at room temperature

## O=C(CCc1c(-c2ccc(F)cc2)[nH]c2ccccc12)N[C@@H]1C(=O)NC[C@H]1O [Compound 1 Form B]
  thermodynamic stability relative to other forms of the compound: most thermodynamically stable form
